Data: patent US12351574B2, “Selective ligands for modulation of GIRK channels” (Northeastern University, priority 2018, dated 2025)

Target: T1, GIRK1/2(V-T) (UniProt P48542+P48549, V99T)
T1 construct: expressed in transfected cells; host or cells: Xenopus laevis oocytes (cRNA injection)
T1 sequence (P48549 1-501): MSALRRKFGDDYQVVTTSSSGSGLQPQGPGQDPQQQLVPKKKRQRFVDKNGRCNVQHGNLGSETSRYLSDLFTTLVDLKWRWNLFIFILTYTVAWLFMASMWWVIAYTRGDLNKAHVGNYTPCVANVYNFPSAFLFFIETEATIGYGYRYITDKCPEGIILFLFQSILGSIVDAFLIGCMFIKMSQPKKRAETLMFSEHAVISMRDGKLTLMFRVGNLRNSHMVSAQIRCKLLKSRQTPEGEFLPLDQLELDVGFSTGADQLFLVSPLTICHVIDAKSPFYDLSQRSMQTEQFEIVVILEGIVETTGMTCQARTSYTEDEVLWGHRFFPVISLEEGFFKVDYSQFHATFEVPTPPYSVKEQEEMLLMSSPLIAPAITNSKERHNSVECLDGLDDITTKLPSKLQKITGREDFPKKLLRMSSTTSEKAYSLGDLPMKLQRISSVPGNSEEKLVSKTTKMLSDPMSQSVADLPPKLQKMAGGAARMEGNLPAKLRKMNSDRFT
T1 sequence (P48542 1-425 V99T): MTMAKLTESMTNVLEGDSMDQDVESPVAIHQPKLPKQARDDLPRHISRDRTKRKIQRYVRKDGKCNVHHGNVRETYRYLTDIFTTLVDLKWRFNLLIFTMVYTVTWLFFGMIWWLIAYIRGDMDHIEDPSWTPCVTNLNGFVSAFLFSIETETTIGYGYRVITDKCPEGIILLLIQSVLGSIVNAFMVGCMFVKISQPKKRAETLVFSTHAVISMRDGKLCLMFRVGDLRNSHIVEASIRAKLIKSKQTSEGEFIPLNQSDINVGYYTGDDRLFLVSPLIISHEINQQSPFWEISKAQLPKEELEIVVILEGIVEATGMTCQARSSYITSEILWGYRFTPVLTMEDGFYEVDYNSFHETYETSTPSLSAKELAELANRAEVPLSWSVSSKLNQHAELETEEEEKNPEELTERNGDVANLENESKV
Assay: TEVC in Xenopus oocytes, single mutant GIRK1/2(V-T)
Format: cell-based, human GIRK1, mouse GIRK2
Details: GIRK1/2(V-T) single mutant
Excerpt: Molecular biology: For Xenopus oocyte expression, human GIRK1 and human GIRK4 cDNAs were subcloned into pGEMHE. For mammalian expression, human GIRK1 and human GIRK4 cDNAs were subcloned into pcDNA3 and pcDNA3.1/V5-His B, respectively (Invitrogen). Mouse GIRK2 cDNA was subcloned in the dual-function vector, pXoom. Point mutations were introduced using a standard Pfu-based mutagenesis technique according to the QuikChange protocol (Agilent). Mutations were verified by sequencing.
Electrophysiology of oocytes: Whole-oocyte currents were measured by conventional two-electrode voltage clamp (TEVC) with a GeneClamp 500 amplifier (Axon Instruments). Agarose cushion microelectrodes were filled with 1.5% (w/v) agarose in 3 M KCl and were used with resistances between 0.1 and 1.5 megaohms. […] Barium-sensitive basal currents from both groups, 1) Vehicle, 2) single concentration at 10 μM and 3) multiple concentrations of ML297 or GAT compounds in the presence of HK solution, were assessed at −80 mV using TEVC. Barium-sensitive currents were normalized to average basal current in the vehicle solutions. The HK solution contained the following: 96 mM KCl, 1 mM NaCl, 1 mM MgCl2, 5 mM KOH/HEPES, pH 7.4. The barium solution consisted of HK+10 mM BaCl2. Five to ten oocytes from the same batch (same frog) were recorded for each group, and the experiments were repeated in at least four batches. Data acquisition and analysis were carried out using pClamp9 (Molecular Devices) and OriginPro (Microcal) software.
To test these computational predictions, the inventors mutated each or both of the two M1 key wild-type GIRK4 subunit residues to the corresponding GIRK2 residues (GIRK4-V92I, GIRK4-T94V, GIRK4-V92I/T94V or GIRK4-dm) and vice-versa the GIRK2 residues to the corresponding GIRK4 ones (GIRK2-I97V, GIRK2-V99T, GIRK2-I97V/V99T or GIRK2-dm) (FIG. 35). […]

## Cc1cc(NC(=O)Nc2ccc(Br)s2)n(-c2ccccc2)n1 [GAT1508, 1-(5-bromothiophen-2-yl)-3-(3-methyl-1-phenyl-1H-pyrazol-5-yl)urea]
  EC50: 0.53 ± 0.07 µM
  EMAX: 1.92±0.03
read-out: EMAX, % of the control GIRK1/2
  Emax: 65%
